Data published in patent publication US20190375837A1, “IMMUNOCYTOKINE COMBINATION THERAPY” (priority 2017, published 2019).
Like-named read-outs stand apart in the source and are kept apart here.

Legend:
[1] = in vivo; set-up: species or system BALB/c nu/nu mice; details: female, BALB/c nu/nu, mouse, iv, 30 nmol/kg, total radioactivity
Method: (§1) Radiolabeling procedures with technetium-99m were performed following described procedures (Krall N, Pretto F, Mattarella M, Muller C, Neri D. A technetium 99m-labeled ligand of carbonic anhydrase IX selectively targets renal cell carcinoma in vivo. J Nucl Med 2016; and Cazzamalli S, Dal Corso A, Neri D. Acetazolamide serves as selective delivery vehicle for dipeptide-linked drugs to renal cell carcinoma. Mol Cancer Ther 2016). Briefly, compounds 8, 9 and 10 (60 nmol) in TBS pH 7.4 (50 μl) were separately mixed with SnCl2 (Sigma Aldrich, 200 μg) and sodium glucoheptonate (TCI, 20 mg) in H2O (150 μl). Tris-buffered saline at pH 7.4 (600 μl) was added and the resulting solution degassed for 5 min by bubbling with nitrogen gas. The eluate from a ^99mTc-generator (200 μl, ca. 200 MBq, Mallinckrodt) was added and the reaction mixture heated to 90° C. for 20 min After cooling to room temperature, analytic aliquots were analyzed by RP-HPLC (XTerra C18, 5% MeCN in 0.1% aq. TFA to 80% over 20 min on a Merck-Hitachi D-7000 HPLC system equipped with a Raytest Gabi Star radiodetector) to determine radiolabelling yields. ^99mTc incorporations >95% were routinely achieved.
(§2) Mice were randomized (n=3 per group) and injected intravenously with radiolabelled preparations of compounds 8, 9 or 10 (1-3 MBq, 30 nmol/Kg). Mice were sacrificed 6 hours after the injection by CO2 asphyxiation and organs extracted, weighted and radioactivity measured with a Packard Cobra γ-counter. Values are expressed as % ID/g ±SD (FIG. 10B).

[2] = system: SKRC-52 xenografts; experiment: in vivo; set-up: species or system BALB/c nu/nu mice; details: mouse, iv
Method: as §1, §2

[3] = system: SKRC-52 renal cell carcinoma; experiment: Tumor therapy in SKRC-52 xenografts: compound 2 with L19-IL2; format: in vivo, BALB/c nu/nu mice; details: day 17 after tumor implantation; compound 2 250 nmol/kg IV, L19-IL2 2.5 mg/Kg IV, single or combined
Text: Animals were sacrificed when the termination criteria were reached.

[4] = system: renal cell carcinoma; details: 18 patients with renal cell carcinoma; cited from earlier work
[5] = system: SKRC-52 renal cell carcinoma; experiment: Tumor rechallenge of cured mice with SKRC-52, then treatment of regrowing tumors; format: in vivo, BALB/c nu/nu mice; details: L19-IL2 2.5 mg/Kg alone; 3 mice
Method: To determine whether the CAIX ligand armed with MMAE (compound 2, see example 1) in combination with L19-IL2 caused acquired protective immunity against the tumor, mice that were cured in the therapy experiment of Example 2 were injected with 5×10^6 cells (100 μl of a suspension) SKRC-52 cells/mouse 20 days after the treatment ended. […] Mice were rearranged in two groups and treated with either the compound 2 alone (250 nmol/Kg; 2 mice), or L19-IL2 (2.5 mg/Kg; 3 mice) alone (see the schedule in FIGS. 4A and 4B).

[6] = system: SKRC-52 renal cell carcinoma; details: for anti-cancer activity compared to vehicle: 250 nmol/Kg IV per administration, n=4 per group, p<0.0001 for compounds 2 and 4; for tumor growth retardation compared with the other SMDCs: compound 2 vs compound 4
Method: SKRC-52 cells were grown to 80% confluence and detached with Trypsin-EDTA 0.05% (Life Technologies). Cells were washed with Hank's Balanced Salt Solution (HBSS, pH 7.4) once, counted and re-suspended in HBSS to a final concentration of 5×10^7 cells/ml. Aliquots of 5×10^6 cells (100 μl of a suspension) were injected subcutaneously in the right flank of female athymic BALB/c nu/nu mice (6-8 weeks of age, Janvier).

[7] = in vivo; details: nude, mouse

Which results are given for CC(CCC(=O)N[C@@H](CC(=O)N[C@@H](CC(=O)N[C@@H](CCCCn1cc(CCCC(=O)Nc2nnc(S(N)(=O)=O)s2)nn1)C(=O)NCCCC[C@H](N)C(=O)N[C@@H](CC(=O)O)C(=O)N[C@@H](CS)C(=O)O)C(=O)O)C(=O)O)(c1ccc(O)cc1)c1ccc(O)cc1 [compound 8, AAZ*-^99mTc Chelator, metal not drawn]?
tissue uptake at 6 h [1]: 40 %ID/g; tumor to blood ratio [2]: 80:1

Which results are given for “L19-IL2: immunocytokine in which the anti-EDB antibody L19 (scFv) is conjugated to IL-2, SEQ ID NO: 22”?
antitumor activity (FIG. 3) [3]: Potent antitumor activity; objective responses [4]: no objective responses; second complete tumor regression of regrowing tumors [5]: second complete tumor regression for all 3 animals

Which tissue uptake at 6 h [1] does the source give for N[C@@H](CCCCNC(=O)[C@H](CC(=O)O)NC(=O)CCCCn1cc(CCCC(=O)Nc2nnc(S(N)(=O)=O)s2)nn1)C(=O)N[C@@H](CC(=O)O)C(=O)N[C@@H](CS)C(=O)O [compound 9, AAZ-^99mTc Chelator, metal not drawn, reference compound] here?
The tissue uptake at 6 h was 18 %ID/g.

Which “anti-cancer activity compared to vehicle” value [6] does the source give for CC[C@H](C)[C@@H]([C@@H](CC(=O)N1CCC[C@H]1[C@H](OC)[C@@H](C)C(=O)N[C@H](C)[C@@H](O)c1ccccc1)OC)N(C)C(=O)[C@@H](NC(=O)[C@H](C(C)C)N(C)C(=O)OCc1ccc(NC(=O)[C@H](CCCNC(N)=O)NC(=O)[C@@H](NC(=O)CCCCCN2C(=O)CC(SC[C@H](NC(=O)[C@H](CC(=O)O)NC(=O)[C@H](CCCNC(=N)N)NC(=O)[C@H](CC(=O)O)NC(=O)[C@H](CCCCn3cc(CCCC(N)=O)nn3)NC(=O)C[C@H](NC(=O)C[C@H](NC(=O)CCC(C)(c3ccc(O)cc3)c3ccc(O)cc3)C(=O)O)C(=O)O)C(=O)O)C2=O)C(C)C)cc1)C(C)C (stereo partly shown) [compound 6, NH2^+-ValCit-MMAE] here?
The value was “did not display a difference from the vehicle-treated group”.

Which MTD [7] does the source give for CC[C@H](C)[C@@H]([C@@H](CC(=O)N1CCC[C@H]1[C@H](OC)[C@@H](C)C(=O)N[C@H](C)[C@@H](O)c1ccccc1)OC)N(C)C(=O)[C@@H](NC(=O)[C@H](C(C)C)N(C)C(=O)OCc1ccc(NC(=O)[C@H](CCCNC(N)=O)NC(=O)[C@@H](NC(=O)CCCCCN2C(=O)CC(SC[C@H](NC(=O)[C@H](CC(=O)O)NC(=O)[C@H](CCCNC(=N)N)NC(=O)[C@H](CC(=O)O)NC(=O)[C@H](CCCCn3cc(CCCC(=O)Nc4nnc(S(N)(=O)=O)s4)nn3)NC(=O)C[C@H](NC(=O)C[C@H](NC(=O)CCC(C)(c3ccc(O)cc3)c3ccc(O)cc3)C(=O)O)C(=O)O)C(=O)O)C2=O)C(C)C)cc1)C(C)C (stereo partly shown) [compound 2, AAZ*-ValCit-MMAE] here?
Its MTD is 0.25 µmol/kg.

And the “antitumor activity (FIG. 3)” value [3]?
Its value is “Potent antitumor activity”.

What about the durable complete response ([6]; 250 nmol/Kg IV) of the same compound?
Its durable complete response is “no mice had a durable complete response”.

And the “tolerability (body weight changes, FIG. 9B)” value ([6]; 250 nmol/Kg IV)?
The value was “very well tolerated”.

What about the “anti-cancer activity compared to vehicle” value [6] of the same compound?
The value was “potent anti-cancer activity”.

And the “tumor growth retardation compared with the other SMDCs” value ([6]; 250 nmol/Kg IV)?
Its value is “most potent tumor growth retardation effect”.

What about the “tumor growth retardation compared with the other SMDCs” value ([6]; 250 nmol/Kg IV, listed as SMDC 2) of the same compound?
The value was “superior antitumor activity”.

And the “therapeutic efficacy after presaturation with excess of free AAZ* (compound 7)” value ([6]; 50-fold dose of AAZ* ligand (1.25 μmol/Kg) directly followed by compound 2 250 nmol/Kg)?
Its value is “reduced significantly”.

With CC[C@H](C)[C@@H]([C@@H](CC(=O)N1CCC[C@H]1[C@H](OC)[C@@H](C)C(=O)N[C@H](C)[C@@H](O)c1ccccc1)OC)N(C)C(=O)[C@@H](NC(=O)[C@H](C(C)C)N(C)C(=O)OCc1ccc(NC(=O)[C@H](CCCNC(N)=O)NC(=O)[C@@H](NC(=O)CCCCCN2C(=O)CC(SC[C@H](NC(=O)[C@H](CC(=O)O)NC(=O)[C@H](CCCNC(=N)N)NC(=O)[C@H](CC(=O)O)NC(=O)CCCCn3cc(CCCC(=O)Nc4nnc(S(N)(=O)=O)s4)nn3)C(=O)O)C2=O)C(C)C)cc1)C(C)C (stereo partly shown) [compound 4, AAZ-ValCit-MMAE, reference compound] as the compound, how does the “anti-cancer activity compared to vehicle” value [6] read?
Its value is “potent anti-cancer activity”.
